Assays:
[1] = target: T1, Serine/threonine-protein kinase ULK2 (Homo sapiens) (UniProt Q8IYT8); test: Inhibition of human recombinant ULK2 at 40 nM in presence of ATP by radiometric assay relative to control
T1 sequence (whole entry): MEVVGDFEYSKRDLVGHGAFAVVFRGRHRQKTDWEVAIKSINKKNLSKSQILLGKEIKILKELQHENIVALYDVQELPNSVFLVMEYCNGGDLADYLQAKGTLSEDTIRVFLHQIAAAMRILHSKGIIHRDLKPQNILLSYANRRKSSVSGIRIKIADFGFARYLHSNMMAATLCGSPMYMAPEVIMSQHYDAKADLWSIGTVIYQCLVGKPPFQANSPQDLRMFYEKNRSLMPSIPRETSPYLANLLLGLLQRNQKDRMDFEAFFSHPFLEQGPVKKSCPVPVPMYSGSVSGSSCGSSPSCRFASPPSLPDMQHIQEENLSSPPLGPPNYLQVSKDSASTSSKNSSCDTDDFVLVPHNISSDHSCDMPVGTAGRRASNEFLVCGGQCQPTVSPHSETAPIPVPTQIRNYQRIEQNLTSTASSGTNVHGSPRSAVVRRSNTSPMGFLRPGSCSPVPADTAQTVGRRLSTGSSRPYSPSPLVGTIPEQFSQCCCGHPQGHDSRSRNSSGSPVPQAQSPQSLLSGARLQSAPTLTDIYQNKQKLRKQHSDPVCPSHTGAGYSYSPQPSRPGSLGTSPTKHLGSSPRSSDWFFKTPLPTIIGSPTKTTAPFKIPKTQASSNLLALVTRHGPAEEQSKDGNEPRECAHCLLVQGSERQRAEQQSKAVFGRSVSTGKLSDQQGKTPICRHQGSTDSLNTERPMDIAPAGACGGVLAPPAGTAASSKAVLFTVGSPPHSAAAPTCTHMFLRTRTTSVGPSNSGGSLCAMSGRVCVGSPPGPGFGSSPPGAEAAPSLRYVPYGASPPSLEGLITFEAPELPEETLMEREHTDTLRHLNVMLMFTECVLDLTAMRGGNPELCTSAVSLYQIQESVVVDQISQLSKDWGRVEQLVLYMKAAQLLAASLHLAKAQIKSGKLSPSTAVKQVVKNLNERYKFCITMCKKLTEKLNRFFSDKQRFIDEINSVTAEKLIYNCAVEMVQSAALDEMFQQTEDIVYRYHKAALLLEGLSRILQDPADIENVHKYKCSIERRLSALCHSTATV

[2] = target: T2, NUAK family SNF1-like kinase 1 (Homo sapiens) (UniProt O60285); test: Inhibition of human recombinant NuaK1 at 40 nM in presence of ATP by radiometric assay relative to control
T2 sequence (whole entry): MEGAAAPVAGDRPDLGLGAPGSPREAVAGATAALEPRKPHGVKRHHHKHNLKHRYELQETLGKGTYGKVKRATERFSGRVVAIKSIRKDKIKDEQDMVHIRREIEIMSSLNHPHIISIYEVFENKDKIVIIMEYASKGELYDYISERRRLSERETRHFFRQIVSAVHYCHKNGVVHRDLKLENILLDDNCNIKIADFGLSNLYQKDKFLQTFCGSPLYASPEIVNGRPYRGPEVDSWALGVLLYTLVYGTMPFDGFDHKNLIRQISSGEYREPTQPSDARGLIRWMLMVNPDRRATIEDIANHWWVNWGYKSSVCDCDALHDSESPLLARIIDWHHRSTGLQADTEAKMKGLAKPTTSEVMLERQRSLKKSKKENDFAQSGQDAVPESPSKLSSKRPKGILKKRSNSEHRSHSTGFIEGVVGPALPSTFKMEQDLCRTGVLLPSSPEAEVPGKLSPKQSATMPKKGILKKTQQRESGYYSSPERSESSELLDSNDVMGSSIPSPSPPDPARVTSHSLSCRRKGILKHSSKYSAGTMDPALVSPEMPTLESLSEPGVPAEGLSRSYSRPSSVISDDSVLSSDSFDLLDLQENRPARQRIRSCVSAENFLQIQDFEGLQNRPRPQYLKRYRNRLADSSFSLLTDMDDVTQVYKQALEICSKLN

[3] = target: T3, Mitogen-activated protein kinase 12 (Homo sapiens) (UniProt P53778); test: Inhibition of human recombinant p38gamma at 15 nM related to control ULK1
T3 sequence (whole entry): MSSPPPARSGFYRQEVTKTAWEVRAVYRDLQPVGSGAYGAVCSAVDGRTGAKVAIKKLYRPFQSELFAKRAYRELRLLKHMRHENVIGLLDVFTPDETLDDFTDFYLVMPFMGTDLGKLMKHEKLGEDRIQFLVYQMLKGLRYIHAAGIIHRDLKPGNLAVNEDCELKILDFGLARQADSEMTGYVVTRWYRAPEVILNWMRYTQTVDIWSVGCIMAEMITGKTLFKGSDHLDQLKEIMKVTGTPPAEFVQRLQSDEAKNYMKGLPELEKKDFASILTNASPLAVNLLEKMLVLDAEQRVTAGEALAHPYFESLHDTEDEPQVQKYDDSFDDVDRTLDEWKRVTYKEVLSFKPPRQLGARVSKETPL

[4] = target: T4, Serine/threonine-protein kinase Sgk1 (Homo sapiens) (UniProt O00141); test: Inhibition of human recombinant SGK1 at 500 nM related to control ULK1
T4 sequence (whole entry): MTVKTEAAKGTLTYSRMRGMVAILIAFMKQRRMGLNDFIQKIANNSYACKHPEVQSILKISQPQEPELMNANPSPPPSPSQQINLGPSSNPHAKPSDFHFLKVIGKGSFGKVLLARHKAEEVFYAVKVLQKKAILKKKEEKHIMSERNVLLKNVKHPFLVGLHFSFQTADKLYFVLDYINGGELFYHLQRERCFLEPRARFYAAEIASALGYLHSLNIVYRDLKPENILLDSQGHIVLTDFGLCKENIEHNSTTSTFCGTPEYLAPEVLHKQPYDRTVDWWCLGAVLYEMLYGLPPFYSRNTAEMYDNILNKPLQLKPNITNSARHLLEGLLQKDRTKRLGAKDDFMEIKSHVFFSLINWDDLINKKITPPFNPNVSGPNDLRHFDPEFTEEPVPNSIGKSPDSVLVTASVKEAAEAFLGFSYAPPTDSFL

How did the inhibition [1] turn out when O=C(N[C@@H](C1CC1)C(F)(F)F)c1cc(-c2cnn3cc(-c4ccc(F)cc4)cnc23)cs1 was run?
Its inhibition is 46%.

And the inhibition [2]?
Its inhibition is 5%.

CC(C)[C@H](NC(=O)c1cc(-c2cnn3cc(-c4ccc(OCCN5CCCCC5)cc4)cnc23)cs1)C(F)(F)F was tested. Which fold change (FC) [3] did it give?
The fold change (FC) was 0.06.

With CNC(=O)c1ccccc1Oc1nc(Nc2cc(OC)c(OC)c(OC)c2)ncc1Br as the compound, how does the fold change (FC) [4] read?
The fold change (FC) was 0.03.
